# Source: publication PMC10298982, “Stability Characterization of the Novel Anti-Cancer HM-10/10 HDL-Mimetic Peptide” (International Journal of Molecular Sciences, 2023)
# Several values for one entry are separate records, joined by “and”; a condition that tells them apart may be missing. Equal entries are not always repeated. Ends that are not written are not given here.
# Columns and labels:
# [1] = Stability in simulated gastric fluid (SGF); assay type: in vitro ADME; settings: SGF pH 1.3
# Procedure: When developing any potentially oral-route pharmaceutical agent, the denaturing and pepsin-rich environment of the stomach must be considered. The stability of HM-10/10 was tested in simulated gastric fluid (SGF) and simulated intestinal fluid (SIF) over 120 min. […] Samples were tested at 2 μM.
# For the HM-10/10 stability assay in simulated gastric and intestinal fluids, propantheline was used to confirm retention time and carbutamide was used as the internal standard for calculations.
# [2] = Metabolic stability in human liver microsomes; assay type: in vitro ADME
# [3] = system: CYP2B6; test: CYP2B6 induction (enzyme activity) in single-donor human hepatocytes; settings: for Fold Increase (Enzyme Activity) Mean: mean of three lots
# Procedure: The transport medium was replaced with 200 μL of warm (37 °C) incubation medium (InVitroGRO HI, BioIVT Catalog No. Z99009) and the plate was placed in a humidified 5% carbon dioxide incubator at 37 °C for 24 h.
# In addition, test article vehicle (PBS) was added to warm (37°C) InVitroGRO HI Medium in a 5:95 (v:v) ratio. […] The plates were removed from the incubator and the hepatocytes were prepared for the induction assay by replacing the cell culture medium with medium containing either the test article, a control inducer, or vehicle control (200 µL per well). The hepatocyte plates were returned to the cell culture incubator and incubated for 24 h.
# On Day 3, induction was repeated following the same steps as described above for the previous day, and plates were returned to the cell culture incubator for an additional 24 h.
# After aliquots were taken to measure test article stability, all the remaining medium from each well in the hepatocyte plate was removed, all wells were washed once using 200 μL of blank assay buffer, and then 100 μL of the 1000-fold diluted substrate solutions were added to the appropriate wells. The assay plate was returned to the humidified 5% carbon dioxide incubator at 37 °C for 1 h incubation.
# At the end of the incubation time, 100 μL of mRNA lysis buffer was added to each well to stop the reaction. Fifty microliters of this reaction mixture were transferred into a new plate and quenched with 200 μL of ice-cold acetonitrile containing a CYP-specific stable labeled internal standard (250 ng/mL acetaminophen-d4, 250 ng/mL hydroxybupropion-d6, or 250 ng/mL hydroxytestosterone-d3). After removal of the aliquots from the plate for enzyme activity determination, the assay plates were sealed and stored in a −70 °C freezer until use for RT-PCR, mRNA analysis.
# For the induction assay samples, an aliquot (50 µL) of the supernatant was transferred to a new plate and diluted with 100 µL Milli-Q water. For the test article stability samples, an aliquot (50 µL) of the supernatant was transferred to a new plate and diluted with 60 µL 0.1% formic acid in Milli-Q water. These samples for the enzyme activity assay and article stability test were refrigerated for storage until analysis. […]
# HM1010: Induction Potential of Cytochrome P450 Enzymes
# (CYP1A2, CYP2B6 and CYP3A4) Using Human Cryopreserved Hepatocytes
# Testing Facility Study No.
# The purpose of this in-vitro study was to determine the induction potential of HM1010 on human
# cytochrome P450 (CYP) isoenzyme (1A2, 2B6 and 3A4) activity. The study design is
# Matrix: Inducible cryopreserved human hepatocytes three single-donor lots
# Assay Buffer: InVitroGRO KHB
# Substrates: Phenacetin (1A2), Bu propion (2B6), and Testosterone (3A4)
# Assay conditions: 48 hours at 37°C in humidified 5% carbon dioxide incubator
# Analysis: LC-MS/MS (enzyme activity) and mRNA analysis
# [4] = system: CYP2B6; test: CYP2B6 induction (mRNA expression) in single-donor human hepatocytes; assay type: in vitro ADME
# Procedure: RNA isolation and quantification: E-Z 96 Total RNA Kit (Omega Bio-tek, Catalog No. R1034-02) was used for RNA isolation and Quant-iT RNA assay kit (ThermoFisher, Catalog No. Q33140) was used for RNA quantification. The plates were removed from a −80 °C freezer and equilibrated to room temperature. RNA was extracted using the manufacturer’s recommended protocol. Eighty-one microliters of 100% ethanol were added into each well containing 150 µL of lysed sample to make a final ethanol concentration at 35%.
# cDNA generation: For cDNA generation, a High-Capacity cDNA Reverse Transcription Kit (Applied Biosystems, Catalog No. 4319983) and QuantStudio 3 PCR system (Applied Biosystems) were used. In this step, 2X Reverse Transcription Master Mix was prepared using the contents of the kit. Then, 10 µL of total RNA was added to 10 µL of 2X Reverse Transcription Master Mix in a microplate and the plate was sealed. This plate was then run in a thermocycler to generate cDNA.
# Real time PCR: SsoAdvanced Universal SYBR® Green Supermix (BIO-RAD, Catalog No. 172-5270) and the QuantStudio 3 Real-Time PCR system (Applied Biosystems) were used to perform real-time PCR on the generated cDNA. In this step, a PCR mix was prepared using PCR Supermix, SYBR® primers for the targeted genes, and nuclease-free water. Two microliters of ten-fold diluted cDNA samples (5 µL of cDNA into 45 μL of nuclease-free water) were added to 8 µL of PCR Mix in a microplate and sealed. This plate was then run through the Real-Time PCR system to generate the mRNA expression data.
# • Human GAPDH • F: […] • R: […] • Human CYP1A2 • Unique Assay ID: qHsaCID0015160 • Chromosome Location: 15:75045562-75047256 • Human CYP2B6 • F: […] • R: […] • Human CYP3A4 • F: […] • R: […]
# [5] = Protein binding in CD-1 mouse plasma (ultracentrifugation); settings: CD-1, mouse, plasma (K2EDTA)
# [6] = system: CD-1 mouse plasma proteins; test: as above; settings: CD-1 mouse plasma (K2EDTA); 2 μM; 2.5 h at 37 °C
sequence,measurement,setting,value
"LRKLRKRLLRLVGRQLEEFL [HM-10/10, LRKLRKRLLRLVGRQLEEFL]",half-life at 2 µM,[1],6.2 h
same,CLint scaled,"[2]; Human liver microsomes 0.5 mg protein/mL, 2 μM",61.5 mL/min/kg
same,half-life at 2 µM,"[2]; pooled liver microsomes, pH 7.4, Human liver microsomes 0.5 mg protein/mL",0.338 h
same,"remaining at 2 h, 2 µM","[2]; pooled liver microsomes, pH 7.4, Human liver microsomes 0.5 mg protein/mL, read-out: % Remaining at 120 min",1.4%
same,Fold Increase (Enzyme Activity) Lot HH1086,[3]; 2 µM,3.18 fold
same,Fold Increase (Enzyme Activity) Lot HH1142,[3]; 2 µM,2.82 fold
same,Fold Increase (Enzyme Activity) Lot HH1144,[3]; 2 µM,3.00 fold
same,Fold Increase (Enzyme Activity) Mean,[3]; 2 µM,3.00 fold
same,Fold Increase (Enzyme Activity) Lot HH1086,[3]; 10 µM,4.01 fold
same,Fold Increase (Enzyme Activity) Lot HH1142,[3]; 10 µM,6.36 fold
same,Fold Increase (Enzyme Activity) Lot HH1144,[3]; 10 µM,4.52 fold
same,Fold Increase (Enzyme Activity) Mean,[3]; 10 µM,4.96 fold
same,Fold Increase (Enzyme Activity) Lot HH1086,[3]; 25 µM,2.80 fold
same,Fold Increase (Enzyme Activity) Lot HH1142,[3]; 25 µM,9.29 fold
same,Fold Increase (Enzyme Activity) Lot HH1144,[3]; 25 µM,6.73 fold
same,Fold Increase (Enzyme Activity) Mean,[3]; 25 µM,6.27 fold
same,Comments (mRNA induction),[4]; 2 µM,Induction Observed
same,Fold Increase (mRNA Expression) Lot HH1086,[4]; 2 µM,2.03 fold
same,Fold Increase (mRNA Expression) Lot HH1142,[4]; 2 µM,9.76 fold
same,Fold Increase (mRNA Expression) Lot HH1144,[4]; 2 µM,2.86 fold
same,Fold Increase (mRNA Expression) Mean of 3 Lots,[4]; 2 µM,4.88 fold
same,Comments (mRNA induction),[4]; 10 µM,Induction Observed
same,Fold Increase (mRNA Expression) Lot HH1086,[4]; 10 µM,2.54 fold
same,Fold Increase (mRNA Expression) Lot HH1142,[4]; 10 µM,7.08 fold
same,Fold Increase (mRNA Expression) Lot HH1144,[4]; 10 µM,3.33 fold
same,Fold Increase (mRNA Expression) Mean of 3 Lots,[4]; 10 µM,4.32 fold
same,Comments (mRNA induction),[4]; 25 µM,Induction Observed
same,Fold Increase (mRNA Expression) Lot HH1086,[4]; 25 µM,1.26 fold
same,Fold Increase (mRNA Expression) Lot HH1142,[4]; 25 µM,5.04 fold
same,Fold Increase (mRNA Expression) Lot HH1144,[4]; 25 µM,1.92 fold
same,Fold Increase (mRNA Expression) Mean of 3 Lots,[4]; 25 µM,2.74 fold
same,"remaining at 2.5 h, 2 µM",[5]; pH 7.4,14.6%
same,"fraction unbound at 2.5 h, 2 µM","[5]; pH 7.4, Fu (Unbound Fraction) Mean ± SD, CD-1 mouse plasma (K2EDTA), 2 μM, 2.5 h at 37 °C",0.847 ± 0.246
same,% Protein Bound Mean ± SD,[6],15.3% and 15.3 ± 24.6%
same,% Protein Free Mean ± SD,[6],84.7 ± 24.6%
